In paper PMC11439681, “The identification of potent dual-target monopolar spindle 1 (MPS1) and histone deacetylase 8 (HDAC8) inhibitors through pharmacophore modeling, molecular docking, molecular dynamics simulations, and biological evaluation” (Frontiers in Pharmacology, 2024):

What was measured:
Assay in all cases: In vitro selectivity assay
Type in all cases: biochemical
Details in all cases: selectivity panel
NTRK2 = biological target: T1, NTRK2 (Homo sapiens, UniProt Q16620)
T1 construct: ICE Bioscience Inc. (contract assay provider)
Procedure: (§1) The inhibitory effects of compound MPH-5 on a panel of 68 kinases and other histone deacetylases were evaluated to assess the selectivity profile of MPH-5. This experiment was conducted by ICE Bioscience Inc. (Beijing, China).

PTK2 = biological target: T2, PTK2 (Homo sapiens, UniProt Q05397)
T2 construct: ICE Bioscience Inc. (contract assay provider)
Procedure: as §1

MERTK = biological target: T3, MERTK (Homo sapiens, UniProt Q12866)
T3 construct: ICE Bioscience Inc. (contract assay provider)
Procedure: as §1

PTK6 = biological target: T4, PTK6 (Homo sapiens, UniProt Q13882)
T4 construct: ICE Bioscience Inc. (contract assay provider)
T4 sequence (Q13882 whole entry): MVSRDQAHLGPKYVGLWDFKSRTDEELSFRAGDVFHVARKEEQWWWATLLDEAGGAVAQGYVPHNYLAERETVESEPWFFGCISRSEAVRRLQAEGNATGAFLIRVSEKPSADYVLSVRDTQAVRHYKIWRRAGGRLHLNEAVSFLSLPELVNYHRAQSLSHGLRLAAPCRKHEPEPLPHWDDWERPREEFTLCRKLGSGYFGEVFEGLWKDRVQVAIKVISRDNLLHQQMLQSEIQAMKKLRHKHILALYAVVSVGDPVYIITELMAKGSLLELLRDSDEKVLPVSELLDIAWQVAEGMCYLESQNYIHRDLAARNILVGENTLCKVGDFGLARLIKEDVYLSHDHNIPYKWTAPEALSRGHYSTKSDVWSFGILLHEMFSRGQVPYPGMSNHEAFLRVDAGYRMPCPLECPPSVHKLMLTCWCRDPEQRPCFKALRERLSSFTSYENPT
Procedure: as §1

SYK = biological target: T5, SYK (Homo sapiens, UniProt P43405)
T5 construct: ICE Bioscience Inc. (contract assay provider)
Procedure: as §1

ERBB4 = ERBB4 (Homo sapiens, UniProt Q15303)
Procedure: as §1

BMX = biological target: T6, BMX (Homo sapiens, UniProt P51813)
T6 construct: ICE Bioscience Inc. (assay service)
Procedure: as §1

FES = FES (Homo sapiens, UniProt P07332)
Sequence of FES (P07332 whole entry): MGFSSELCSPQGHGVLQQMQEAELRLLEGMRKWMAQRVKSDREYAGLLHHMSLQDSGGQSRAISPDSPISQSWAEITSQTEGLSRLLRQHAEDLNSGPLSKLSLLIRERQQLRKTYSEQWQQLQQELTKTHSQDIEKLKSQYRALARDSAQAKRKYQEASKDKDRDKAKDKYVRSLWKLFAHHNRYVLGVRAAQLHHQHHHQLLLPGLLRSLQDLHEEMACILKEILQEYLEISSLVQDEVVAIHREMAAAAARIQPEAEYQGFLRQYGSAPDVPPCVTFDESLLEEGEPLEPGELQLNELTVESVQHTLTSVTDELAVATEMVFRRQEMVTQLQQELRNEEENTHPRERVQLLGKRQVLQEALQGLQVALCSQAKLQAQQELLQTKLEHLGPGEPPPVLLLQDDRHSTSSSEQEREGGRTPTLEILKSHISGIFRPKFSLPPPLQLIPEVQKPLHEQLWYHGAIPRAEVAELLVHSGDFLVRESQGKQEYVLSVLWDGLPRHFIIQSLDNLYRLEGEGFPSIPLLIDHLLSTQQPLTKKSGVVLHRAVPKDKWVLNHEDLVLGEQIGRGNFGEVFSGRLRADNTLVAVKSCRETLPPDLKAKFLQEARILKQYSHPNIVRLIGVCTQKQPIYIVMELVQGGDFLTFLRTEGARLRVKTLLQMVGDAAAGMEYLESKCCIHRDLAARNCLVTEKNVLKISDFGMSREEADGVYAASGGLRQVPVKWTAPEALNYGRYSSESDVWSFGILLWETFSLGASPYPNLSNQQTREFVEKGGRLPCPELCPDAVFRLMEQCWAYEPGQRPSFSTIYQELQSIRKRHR
Procedure: as §1

FGFR1 = FGFR1 (Homo sapiens, UniProt P11362)
Sequence of FGFR1 (P11362 22-822): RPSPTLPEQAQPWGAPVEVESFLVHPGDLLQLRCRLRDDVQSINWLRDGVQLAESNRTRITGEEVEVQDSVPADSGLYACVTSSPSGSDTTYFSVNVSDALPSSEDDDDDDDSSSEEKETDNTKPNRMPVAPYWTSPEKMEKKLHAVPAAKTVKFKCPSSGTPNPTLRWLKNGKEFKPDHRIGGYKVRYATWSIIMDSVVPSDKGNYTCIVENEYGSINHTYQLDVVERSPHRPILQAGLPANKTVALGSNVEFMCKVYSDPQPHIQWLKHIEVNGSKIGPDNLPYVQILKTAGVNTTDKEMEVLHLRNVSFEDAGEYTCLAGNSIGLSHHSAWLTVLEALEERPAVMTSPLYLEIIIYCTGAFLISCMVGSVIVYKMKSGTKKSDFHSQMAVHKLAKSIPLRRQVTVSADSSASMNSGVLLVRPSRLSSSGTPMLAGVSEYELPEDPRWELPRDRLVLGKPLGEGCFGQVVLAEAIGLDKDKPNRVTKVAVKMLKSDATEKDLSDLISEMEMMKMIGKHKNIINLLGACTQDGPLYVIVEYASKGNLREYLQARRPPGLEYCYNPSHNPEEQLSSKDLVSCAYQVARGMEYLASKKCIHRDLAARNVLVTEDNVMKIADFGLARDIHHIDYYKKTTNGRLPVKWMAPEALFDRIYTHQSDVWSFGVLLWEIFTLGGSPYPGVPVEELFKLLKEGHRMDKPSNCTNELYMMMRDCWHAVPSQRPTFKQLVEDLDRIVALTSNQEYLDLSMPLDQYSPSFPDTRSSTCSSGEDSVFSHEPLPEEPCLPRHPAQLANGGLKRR
Procedure: as §1

ROS1 = ROS1 (Homo sapiens, UniProt P08922)
Procedure: as §1

LTK = biological target: T7, LTK (Homo sapiens, UniProt P29376)
T7 construct: ICE Bioscience Inc. (contract assay provider)
Procedure: as §1

DDR1 = biological target: T8, DDR1 (Homo sapiens, UniProt Q08345)
T8 construct: ICE Bioscience Inc. (assay service)
Procedure: as §1

EPHA4 = biological target: T9, EPHA4 (Homo sapiens, UniProt P54764)
T9 construct: ICE Bioscience Inc. (assay service)
Procedure: as §1

ZAK = ZAK (Homo sapiens, UniProt Q9NYL2)
Procedure: as §1

RET = biological target: T10, RET (Homo sapiens, UniProt P07949)
T10 construct: ICE Bioscience Inc. (contract assay provider)
T10 sequence (P07949 29-1114): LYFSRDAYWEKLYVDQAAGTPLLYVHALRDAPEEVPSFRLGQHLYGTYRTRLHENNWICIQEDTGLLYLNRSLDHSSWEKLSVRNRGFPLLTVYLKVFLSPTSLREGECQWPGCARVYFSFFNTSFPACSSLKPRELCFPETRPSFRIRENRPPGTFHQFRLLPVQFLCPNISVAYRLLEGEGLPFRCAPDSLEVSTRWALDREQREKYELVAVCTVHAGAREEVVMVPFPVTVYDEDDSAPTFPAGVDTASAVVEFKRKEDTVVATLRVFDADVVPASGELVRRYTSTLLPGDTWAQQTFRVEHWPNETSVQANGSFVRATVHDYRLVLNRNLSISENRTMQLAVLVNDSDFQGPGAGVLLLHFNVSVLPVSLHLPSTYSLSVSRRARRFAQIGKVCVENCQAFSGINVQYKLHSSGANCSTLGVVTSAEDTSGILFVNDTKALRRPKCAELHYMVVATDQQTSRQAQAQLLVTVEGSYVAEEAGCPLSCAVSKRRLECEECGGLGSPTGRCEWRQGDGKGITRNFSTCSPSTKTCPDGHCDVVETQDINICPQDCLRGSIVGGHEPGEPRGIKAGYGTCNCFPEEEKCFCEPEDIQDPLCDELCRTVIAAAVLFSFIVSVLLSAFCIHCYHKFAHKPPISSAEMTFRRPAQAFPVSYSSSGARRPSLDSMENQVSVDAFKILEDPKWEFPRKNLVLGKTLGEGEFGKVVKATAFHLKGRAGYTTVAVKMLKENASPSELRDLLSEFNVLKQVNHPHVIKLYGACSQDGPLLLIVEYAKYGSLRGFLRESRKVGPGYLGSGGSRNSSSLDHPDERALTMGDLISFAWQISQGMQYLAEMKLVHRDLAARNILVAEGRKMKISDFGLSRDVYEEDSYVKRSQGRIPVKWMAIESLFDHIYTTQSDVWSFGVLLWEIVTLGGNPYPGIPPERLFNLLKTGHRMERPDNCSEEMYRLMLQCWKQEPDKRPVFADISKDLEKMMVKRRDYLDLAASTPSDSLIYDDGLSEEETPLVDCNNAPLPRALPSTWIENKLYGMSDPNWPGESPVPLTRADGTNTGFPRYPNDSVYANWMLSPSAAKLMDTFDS
Procedure: as §1

HCK = HCK (Homo sapiens, UniProt P08631)
Procedure: as §1

EPHB1 = biological target: T11, EPHB1 (Homo sapiens, UniProt P54762)
T11 construct: ICE Bioscience Inc. (assay service)
Procedure: as §1

DDR2 = biological target: T12, DDR2 (Homo sapiens, UniProt Q16832)
T12 construct: ICE Bioscience Inc. (assay service)
Procedure: as §1

PDGFRA = biological target: T13, PDGFRA (Homo sapiens, UniProt P16234)
T13 construct: ICE Bioscience Inc. (contract assay provider)
Procedure: as §1

EPHB2 = biological target: T14, EPHB2 (Homo sapiens, UniProt P29323)
T14 construct: ICE Bioscience Inc. (assay service)
Procedure: as §1

HDAC6 = biological target: T15, HDAC6 (Homo sapiens, UniProt Q9UBN7)
T15 construct: ICE Bioscience Inc. (Beijing, China), the contract lab that ran the assay
Procedure: as §1

EPHA2 = biological target: T16, EPHA2 (Homo sapiens, UniProt P29317)
T16 construct: ICE Bioscience Inc. (assay service)
Procedure: as §1

FYN = FYN (Homo sapiens, UniProt P06241)
Procedure: as §1

KDR = biological target: T17, KDR (Homo sapiens, UniProt P35968)
T17 construct: ICE Bioscience Inc. (contract assay provider)
Procedure: as §1

LYN = biological target: T18, LYN (Homo sapiens, UniProt P07948)
T18 construct: ICE Bioscience Inc. (contract assay provider)
T18 sequence (P07948 whole entry): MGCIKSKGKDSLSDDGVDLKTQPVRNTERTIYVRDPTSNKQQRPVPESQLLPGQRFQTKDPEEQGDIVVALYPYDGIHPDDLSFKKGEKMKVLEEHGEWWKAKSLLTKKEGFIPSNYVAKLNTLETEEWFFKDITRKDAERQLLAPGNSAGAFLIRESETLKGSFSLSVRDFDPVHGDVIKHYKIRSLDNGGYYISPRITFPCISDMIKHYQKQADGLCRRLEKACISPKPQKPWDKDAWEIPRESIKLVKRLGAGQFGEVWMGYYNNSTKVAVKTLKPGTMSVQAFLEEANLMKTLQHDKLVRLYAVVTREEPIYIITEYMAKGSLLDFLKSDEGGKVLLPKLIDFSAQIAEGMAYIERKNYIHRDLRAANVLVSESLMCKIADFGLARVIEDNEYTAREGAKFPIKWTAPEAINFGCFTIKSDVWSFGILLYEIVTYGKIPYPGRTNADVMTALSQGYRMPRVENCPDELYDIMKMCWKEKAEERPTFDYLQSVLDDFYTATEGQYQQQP
Procedure: as §1

EPHA3 = biological target: T19, EPHA3 (Homo sapiens, UniProt P29320)
T19 construct: ICE Bioscience Inc. (assay service)
Procedure: as §1

INSR = INSR (Homo sapiens, UniProt P06213)
Procedure: as §1

HDAC3 = biological target: T20, HDAC3 (Homo sapiens, UniProt O15379)
T20 construct: ICE Bioscience Inc. (contract assay provider)
Procedure: as §1

JAK1 = JAK1 (Homo sapiens, UniProt P23458)
Procedure: as §1

PDGFRB = biological target: T21, PDGFRB (Homo sapiens, UniProt P09619)
T21 construct: ICE Bioscience Inc. (contract assay provider)
Procedure: as §1

ITK = ITK (Homo sapiens, UniProt Q08881)
Procedure: as §1

AXL = biological target: T22, AXL (Homo sapiens, UniProt P30530)
T22 construct: ICE Bioscience Inc. (assay service)
T22 sequence (P30530 26-894): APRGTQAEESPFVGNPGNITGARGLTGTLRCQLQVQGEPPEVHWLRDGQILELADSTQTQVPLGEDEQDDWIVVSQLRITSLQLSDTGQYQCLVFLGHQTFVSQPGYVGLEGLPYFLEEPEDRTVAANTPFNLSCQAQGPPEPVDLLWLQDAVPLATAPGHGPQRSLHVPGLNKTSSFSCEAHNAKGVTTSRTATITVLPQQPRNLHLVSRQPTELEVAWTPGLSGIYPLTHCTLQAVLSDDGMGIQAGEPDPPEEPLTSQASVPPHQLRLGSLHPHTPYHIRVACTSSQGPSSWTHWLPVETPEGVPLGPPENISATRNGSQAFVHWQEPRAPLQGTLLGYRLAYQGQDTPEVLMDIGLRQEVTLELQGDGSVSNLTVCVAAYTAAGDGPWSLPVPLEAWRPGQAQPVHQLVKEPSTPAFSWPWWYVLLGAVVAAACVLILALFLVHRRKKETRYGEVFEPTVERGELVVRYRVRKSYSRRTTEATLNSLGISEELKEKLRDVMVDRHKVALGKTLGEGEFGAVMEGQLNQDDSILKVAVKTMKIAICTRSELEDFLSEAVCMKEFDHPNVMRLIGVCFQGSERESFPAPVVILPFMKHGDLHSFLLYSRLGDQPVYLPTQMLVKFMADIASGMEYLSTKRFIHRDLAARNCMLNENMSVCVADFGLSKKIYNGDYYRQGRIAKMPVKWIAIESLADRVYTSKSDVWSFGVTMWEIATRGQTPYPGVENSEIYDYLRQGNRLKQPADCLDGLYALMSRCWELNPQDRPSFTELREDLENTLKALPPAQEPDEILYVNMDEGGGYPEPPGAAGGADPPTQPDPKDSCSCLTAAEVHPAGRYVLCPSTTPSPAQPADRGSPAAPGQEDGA
Procedure: as §1

JAK2 = JAK2 (Homo sapiens, UniProt O60674)
Procedure: as §1

NTRK3 = biological target: T23, NTRK3 (Homo sapiens, UniProt Q16288)
T23 construct: ICE Bioscience Inc. (contract assay provider)
Procedure: as §1

EPHA5 = biological target: T24, EPHA5 (Homo sapiens, UniProt P54756)
T24 construct: ICE Bioscience Inc. (assay service)
Procedure: as §1

KIT = biological target: T25, KIT (Homo sapiens, UniProt P10721)
T25 construct: ICE Bioscience Inc. (contract assay provider)
Procedure: as §1

BLK = biological target: T26, BLK (Homo sapiens, UniProt P51451)
T26 construct: ICE Bioscience Inc. (assay service)
Procedure: as §1

FGR = FGR (Homo sapiens, UniProt P09769)
Procedure: as §1

HDAC1 = biological target: T27, HDAC1 (Homo sapiens, UniProt Q13547)
T27 construct: ICE Bioscience Inc. (contract assay provider)
Procedure: as §1

JAK3 = biological target: T28, JAK3 (Homo sapiens, UniProt P52333)
T28 construct: ICE Bioscience Inc. (contract assay provider)
Procedure: as §1

ALK = biological target: T29, ALK (Homo sapiens, UniProt Q9UM73)
T29 construct: ICE Bioscience Inc. (assay service)
Procedure: as §1

FRK = FRK (Homo sapiens, UniProt P42685)
Sequence of FRK (P42685 whole entry): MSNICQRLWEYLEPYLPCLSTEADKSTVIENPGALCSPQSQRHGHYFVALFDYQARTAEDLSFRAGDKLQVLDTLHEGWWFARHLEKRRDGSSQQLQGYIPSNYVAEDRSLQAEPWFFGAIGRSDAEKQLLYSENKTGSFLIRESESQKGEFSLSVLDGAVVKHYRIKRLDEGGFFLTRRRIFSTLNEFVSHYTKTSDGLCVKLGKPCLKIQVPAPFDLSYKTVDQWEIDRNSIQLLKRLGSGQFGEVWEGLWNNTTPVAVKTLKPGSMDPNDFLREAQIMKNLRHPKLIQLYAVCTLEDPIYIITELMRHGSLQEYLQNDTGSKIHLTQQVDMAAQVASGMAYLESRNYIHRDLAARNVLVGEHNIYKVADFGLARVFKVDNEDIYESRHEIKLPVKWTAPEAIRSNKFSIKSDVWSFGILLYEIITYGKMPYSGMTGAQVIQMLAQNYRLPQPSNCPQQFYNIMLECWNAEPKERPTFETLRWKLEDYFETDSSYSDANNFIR
Procedure: as §1

FGFR4 = FGFR4 (Homo sapiens, UniProt P22455)
Procedure: as §1

Measured: IC50

Cn1cc(-c2cc3cnc(Nc4ccc(-c5cncn5/C=C/C(=O)NO)cc4Cl)cc3n2C(=O)OC(C)(C)C)cn1 [MPH-5]
> 10 µM: all assays above
